Measured values: patent publication US12351819B2, “Method for removing undifferentiated pluripotent stem cells” (priority 2017, dated 2025)

Experiments:
[1] = system: cleaved PARP, caspase-3, caspase-7 in hBMMSCs; experiment: Western blot of apoptotic markers, hBMMSCs; type: cell-based, human; details: 2.5 μM, 12 hours
Experimental: (§1) RIPA buffer was used to harvest cell lysates (RIPA buffer: NaCl 150 mM, Tris pH 8.0 50 mM, EDTApH 8.0 5 mM, NP-40 1.0%, SDS 0.5%, sodium deoxycholate 0.1%). Western blot analyses were performed as previously described with different types of primary antibodies^29. The primary antibody includes anti-β-actin (A5441; Sigma), anti-Oct4 (sc-9081; Santa Cruz Biotechnology, Santa Cruz, CA, USA), anti-Nanog (3580; Cell Signaling Technology, Danvers, MA, USA), apoptosis antibody kit (9915; Cell Signaling Technology), ATP1A1 (3010; Cell Signaling Technology), and ATP1A2 (16836-1-AP; Proteintech™) were used. After reaction at 4° C. overnight, the blots were incubated with goat anti-mouse- or goat anti-rabbit antibody conjugated with horseradish peroxidase (Jackson ImmunoResearch Inc). The chemiluminescent substrate (WBKLS0500; Millipore, Darmstadt, Germany) was used to detect the blots. Fujifilm LAS-4000 (FUJIFILM, Tokyo, Japan) was used to take the images.

Nanog in hESCs = experiment: Western blot of pluripotent stem cell marker Nanog, hESCs; type: cell-based, human; details: 2.5 μM, 12 hours
Experimental: as §1

hiPSCs = details: for cytotoxicity (LDH release) in hiPSCs: 2.5 μM, 24 hours; for LDH assay positive, hiPSCs: Table 1
Experimental: (§2) The supernatants of cells treated with digoxin […], lanatoside C 2.5 μm, or DMSO solvent control for 24 hours were harvested. The released LDH was measured using CytoTox 96 […] assay according to the manufacture's instruction (Promega, Southampton, UK). The supernatants and reagents were incubated at room temperature for 20 minutes and then the reaction was stopped by Stop Solution. The absorbance at 490 nm was measured using a plate-reading spectrophotometer (Benchmark Plus Microplate Spectrophotometer System, BIO-RAD, CA, USA).
hiPSC-derived endothelial cells were prepared according in a previous report^34. The hiPSCs were maintained in mTeSR 1 medium ([…] Technologies, Vancouver, Canada) on VTN-N coated plates (Thermo, Wilmington, DE, USA). First, for the stepwise induction of differentiation, we performed a mesoderm induction of hiPSCs seeded in mesoderm induction medium for 48 hours (basal medium with […], […], and 2 ng/ml of Activin A; basal medium was composed of 12 g/L of DMEM/F-12, 3.56 g/L of HEPES, 1.742 g/L of sodium bicarbonate, 14 μg/L of sodium selenite, 10.7 mg/L of recombinant transferrin, 19.4 mg/L of recombinant insulin, and 64 mg/L of L-Ascorbic acid 2-phosphate sesquimagnesium salt hydrate). Second, for the mesoderm to endothelium transition, mesoderm cells were reseeded in vasculogenic medium (basal medium with 2 mg/ml of PVA plus 20 ng/ml of hVEGF-A) for an additional 72 hours. All differentiated cells were plated on VTN pre-coated culture plate dishes. The endothelial cells were analyzed on day 5 by flow cytometry staining with the CD31 (PECAM1, ThermoFisher Scientific, Wilmington, DE, USA) and CD144 (CDH5, ThermoFisher Scientific) antibodies.

hBMMSCs = experiment: Adipogenesis and Oil Red O assay; type: cell-based, human; details: 2.5 μM 24 hours, drug removed; oil red O.D 510 nm
Experimental: Next, drugs were removed, and the cells were cultured in MSCgo™ Adipogenic Differentiation Medium (Biological Industries). The media was changed every 3-4 days for 8-12 days. After the adipogenic induction, we replaced the MSCgo™ Adipogenic complete medium with MSC maintenance medium for 6-9 days. The cells were carefully fixed with 4% formaldehyde for 1 hour at room temperature, washed with 60% isopropanol, and air-dried. The lipid drops were stained with Oil Red O working solution (30 ml 0.35% oil red solution in isopropanol diluted with 20 ml of distilled water) for 10 minutes. Next, the cells were washed with water 4 times. For quantification, Oil Red O stain was extracted with 100% isopropanol, and the absorbance at 510 nm was detected.

[2] = system: cleaved PARP, caspase3, caspase7 in hESC-MSCs; experiment: Western blot of apoptotic markers, hESC-MSCs; type: cell-based, human; details: 2.5 μM, 12 hours
Experimental: as §1

[3] = system: cleaved PARP, caspase-3, caspase-7 in hESCs; experiment: Western blot of apoptotic markers, hESCs; type: cell-based, human; details: 2.5 μM, 12 hours
Experimental: as §1

hESCs (H9) = details: for cytotoxic effect (LDH release) in hESCs: 2.5 μM, 24 hours, vs DMSO; for LDH assay positive, hESCs: Table 1
Experimental: (§3) The hESC line H9 was purchased from WiCells (Madison, WI, USA)^27. Another hESC line, HUES6, was kindly provided by Dr. Douglas A. Melton (Harvard University, Boston, MA, USA)^28. Cells were maintained on the feeder cells and cultured in Dulbecco's modified Eagle's medium (DMEM)/F12 supplemented with 20% knockout serum replacement, 2 mM L-glutamine, 1% nonessential amino acids, 4 ng/mL human bFGF, and 0.1 mM 2-mercaptoethanol. For the feeder cells culture, C57BL/6 mouse embryonic fibroblasts (MEF) were cultured in the DMEM with 10% FBS and treated cells with 0.01 mg/ml mitomycin C 2-6 hours for inactivation. For the feeder-free culture, hESCs were seeded on the Matrigel Matrix (BD Biosciences, San Jose, CA, USA) coated culture plates and maintained by conditioned medium of MEF (C57BL/6). hBMMSCs were cultured in mesenPRO RS™ kit (Life Technologies, Camarillo, CA, USA). All cells were cultured in a humidified atmosphere containing 5% CO2 at 37° C.
as §2

[4] = system: human bone marrow mesenchymal stem cells (hBMMSCs); details: 2.5 μM, 24 hours, vs DMSO
Experimental: as §3, §2

SMILES | cleaved form of apoptosis markers in hBMMSCs [1] | protein levels of Nanog in hESCs (Nanog in hESCs) | cytotoxicity (LDH release) in hiPSCs (hiPSCs) | LDH assay positive, hiPSCs (hiPSCs) | differentiation ability of hBMMSCs into adipocytes (hBMMSCs) | cleaved form of apoptosis markers in hESC-MSCs [2] | cleaved form of PARP, caspase-3, caspase-7 in hESCs [3] | cytotoxic effect (LDH release) in hESCs (hESCs (H9)) | LDH assay positive, hESCs (hESCs (H9)) | cytotoxic effect (LDH release) in hBMMSCs [4]
C[C@H]1O[C@@H](O[C@H]2[C@@H](O)C[C@H](O[C@H]3[C@@H](O)C[C@H](O[C@H]4CC[C@@]5(C)[C@H](CC[C@@H]6[C@@H]5C[C@@H](O)[C@]5(C)[C@@H](C7=CC(=O)OC7)CC[C@]65O)C4)O[C@@H]3C)O[C@@H]2C)C[C@H](O)[C@@H]1O [Digoxin, digoxin] | no cleaved form of the apoptosis markers was detected | downregulated | induced cytotoxicity | +++ (more than 70% positive cells) | neither digoxin nor lanatoside C affected the differentiation ability | no cleaved form of the apoptosis markers was detected | increases in the cleaved form | significantly induced a cytotoxic effect | +++ (more than 70% positive cells) | no cytotoxic effects
CC(=O)O[C@H]1C[C@H](O[C@H]2[C@@H](O)C[C@H](O[C@H]3[C@@H](O)C[C@H](O[C@H]4CC[C@@]5(C)[C@H](CC[C@@H]6[C@@H]5C[C@@H](O)[C@]5(C)[C@@H](C7=CC(=O)OC7)CC[C@]65O)C4)O[C@@H]3C)O[C@@H]2C)O[C@H](C)[C@H]1O[C@@H]1O[C@H](CO)[C@@H](O)[C@H](O)[C@H]1O [Lanatoside C, lanatoside C] | no cleaved form of the apoptosis markers was detected | downregulated | induced cytotoxicity | +++ (more than 70% positive cells) | neither digoxin nor lanatoside C affected the differentiation ability | no cleaved form of the apoptosis markers was detected | increases in the cleaved form | significantly induced a cytotoxic effect | +++ (more than 70% positive cells) | no cytotoxic effects
